Results from PMC4143111, “Photoswitchable precision glycooligomers and their lectin binding” (Beilstein Journal of Organic Chemistry, 2014).

Tests used:
PA-IL [1] = target: T1, PA-IL (Pseudomonas aeruginosa, UniProt Q05097); assay: SPR inhibition/competition assay of PA-IL binding to β-D-galactose-polymer chip
Experimental: In order to determine the binding affinity of the precision glycooligomers to PA-IL, surface plasmon resonance (SPR) experiments were performed. At first, an inhibition/competition assay was carried out. The SPR chip was modified with a β-D-galactose-polymer and α-D-mannose-polymer as negative control (see Supporting Information File 1). In a first experiment, binding of PA-IL (1 µM) to the chip was determined and set as 100%. In a second set of experiments, binding of preincubated mixtures of PA-IL (1 µM) and glycooligomers at serial dilutions (400 µM to 0.1 µM) were measured. […] Plotting this concentration dependent decrease in binding against […], sigmoidal curves were obtained and fitted with the Hill equation. The inhibitory concentration at 50% binding (IC50) was derived for the different glycooligomers (Table 2).
SPR PA-IL inhibition/competition studies:
A sensor chip SA coated with streptavidin was conditioned with three consecutive injections of 100 µl 1 M NaCl and 50 mM NaOH in a flow rate of 100 µL/min. Then, biotinylated β-D-galactose-PAA (0.1 nM in HBS-EP buffer) was immobilized on flow cell 2 with HBS-EP buffer in a flow rate of 5 µL/min.
Biotinylated α-D-mannose-PAA with the same concentration was immobilized as reference on flow cell 1. Binding analyses were carried out with running buffer (HEPES 10 mM, NaCl 150 mM, CaCl2 10 mM, pH 7.4.) at a flow rate of 20 µl/min. The PA-IL binding of the glycooligomers AZO-Gal(1,3)-3, AZO-Gal(1,3,5)-5, EDS-Gal(1,3)-3, EDS-Gal(1,3,5)-5 and AZO-Man(1,3,5)-5 (as control) was examined.
1 µM Pa-IL was incubated with the specific substance at final concentrations of 400 µM, 100 µM, 50 µM, 25 µM, 10 µM, 1 µM and 0.1 µM, in running buffer for 60 minutes at room temperature.
45 µL of each sample were injected over both lanes whereas the binding signal on the reference cell (α-D-mannose-PAA) was subtracted from the β-D-galactose-PAA flow cell during the binding measurement. Each binding cycle consisted of an injection phase for 80 s followed by a 100 s dissociation phase. The chip was regenerated after each run with 100 mM D-galactose in running buffer. The response values were calculated by subtraction of the report point at the beginning of the sample injections (0 s) from the report point at the end of the dissociation phase ([…]). The binding signal obtained by the 1 µM Pa-IL solution in running buffer without inhibitor was set to 100 % binding. This sample was measured 2 times before and 2 times after each measuring cycle. The binding signals of the specific inhibitor was referred to Pa-IL and calculated for relative PA-Il binding in % of PA-IL. Each data point (concentration) represents the mean value (± SEM) of two measurements. The obtained data points for each concentration were plotted with Origin 8.5G and fit with Hill1 equation, allowing for the determination of IC50 values (the concentration of inhibitor that results from 50 % binding of PA-IL binding to β-D-galactose-PAA on the sensor chip).
The characteristic sigmoidal shape (see Figure S4) was fitted with the Hill equation to obtain the IC50 […]
where Start is the value at 100% binding and equals 100, End is the value where no binding is observed anymore and equals 0, x corresponds to the concentration and n describes the cooperativity. IC50 values describe the inhibitory potential of a ligand for a specific receptor which is no direct measure for the affinity of a ligand but can be related to the affinity of the ligand in a competitive experiment e.g. as we have performed with PA-IL and against β-D-galactose.

PA-IL [2] = target: T1, PA-IL; assay: SPR direct binding assay, glycooligomers immobilized on chip, PA-IL flown over; details: steady-state affinity model
From the text: In order to approach practical applications of a photoswitchable device that could modulate its binding affinity towards PA-IL lectins on demand, we were intrigued in the ability of our light-responsive systems to work when immobilized on a surface. To this end we attached the photoswitchable precision glycooligomers directly to the SPR chip and performed a second set of lectin binding experiments using SPR and measuring PA-IL binding on the chip. The glycooligomers were covalently linked to the chip via their terminal amine group and the simultaneous activation of the carboxyl-functionalized chip surface as N-hydroxysuccinimide (NHS) ester (see Supporting Information File 1). Successful functionalization was monitored by SPR. Photoswitching of the glycooligomers was realized either ex situ prior to surface functionalization or in situ by direct irradiation of the functionalized chip. The equilibrium constant KD was obtained by fitting the obtained binding values at the turning point between binding- and dissociation-curve with a steady-state affinity model (Biacore T100 Evaluation Software 2.0.3). In agreement with the previously determined IC50 values, all KD values are in the µM range.
Figure S5: Inhibition curves of controls, Azo-Man(1,3,5)-5 and β-methyl galactose.
SPR PA-IL direct binding studies
For direct binding studies, glycooligomers E-Azo-Gal(1,3)-3, E-Azo-Gal(1,3,5)-5, Azo-Gal(1,3)-3-PSS and Azo-Gal(1,3,5)-5-PSS were immobilized on Biacore CM5 sensor chips. Two PSS were additionally generated by irradiation of the corresponding E structure immobilized on the Biacore sensor chip with light at 360 nm (see irradiation section above for details). Immobilizations were performed by flowing a solution of 2 mM glycoligand for 5 minutes with 10 µL per minute over one flow cell, after activation of it with 0.4 M […] in water and 0.1 M NHS in water. Remaining active ester groups were capped by injection of 1 M ethanolamine. HBS-P (0.01 M HEPES pH 7.4, 0.15 M NaCl, 0.005% v/v Surfactant P20 in water) was used as running buffer. A second flow cell was immobilized as blank reference cell, by flowing 1 M ethanolamine over the cell after activation with 0.4 M EDS in water and 0.1 M NHS in water. Serial dilutions of PA-IL (25 µM, 10 µM, 5 µM, 1 µM, 0.1 µM and 0 µM) were then flown over the sensor chip at 25 °C with Hepes running buffer (HEPES 10 mM, NaCl 150 mM, CaCl2 10 mM, pH 7.4.). Binding of lectin was evaluated with Biacore T100 evaluation software, determining KD affinity constants by employing a steady state affinity model.
(1 picture or pasted object on this page, not shown here)

[3] = Photoisomerization, composition at photostationary state by UPLC; assay type: physicochemical; details: irradiation at 360 nm
Experimental: The photochromic behavior of the newly synthesized AZO-glycooligomers was investigated by UV–vis absorption spectroscopy and ultraperformance liquid chromatography (UPLC). Aqueous solutions of Azo-Gal(1,3)-3 and Azo-Gal(1,3,5)-5 (the compounds were dissolved in the buffer used for the SPR measurements, see Supporting Information File 1 for the details) were irradiated at λ = 360 nm to induce the E → Z isomerization. […] The composition at the photostationary state (PSS) was analyzed by UPLC using integration of the UV signal at the wavelengths of the isosbestic points.

[4] = no isomer state given (control structures), PA-IL 1 µM

T1 sequence (Q05097 whole entry): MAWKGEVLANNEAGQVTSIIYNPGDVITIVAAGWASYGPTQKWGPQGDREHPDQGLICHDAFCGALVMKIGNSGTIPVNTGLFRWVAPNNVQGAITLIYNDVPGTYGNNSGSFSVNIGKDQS

CC(=O)NCCN(CCNC(=O)CCC(=O)NCc1ccc(/N=N/c2ccc(C(=O)NCCN(CCNC(=O)CCC(=O)NCCN)C(=O)CCc3cn(CCO[C@@H]4O[C@H](CO)[C@H](O)[C@H](O)[C@H]4O)nn3)cc2)cc1)C(=O)CCc1cn(CCO[C@@H]2O[C@H](CO)[C@H](O)[C@H](O)[C@H]2O)nn1 [AZO-Gal(1,3)-3]
IC50 (PA-IL [1]; IC50, E-isomer, PA-IL 1 µM preincubated with glycooligomer 400 µM to 0.1 µM): 5.7 ± 1.7 µM
IC50 (PA-IL [1]; IC50, PSS: photostationary state @ 360 nm, PA-IL 1 µM preincubated with glycooligomer 400 µM to 0.1 µM): 9.4 ± 0.1 µM
Kd (PA-IL [2]; KD, E-form immobilized on chip, 25 °C): 1700 ± 100 nM
Kd (PA-IL [2]; KD, PSS @ 360 nm, ex situ irradiation before immobilization): 2400 ± 100 nM
Kd (PA-IL [2]; KD, PSS @ 360 nm, irradiation on chip): 1800 ± 100 nM
Z-azobenzene in the PSS solution ([3]; buffer solution): 78%

CC(=O)NCCN(CCNC(=O)CCC(=O)NCc1ccc(/N=N/c2ccc(C(=O)NCCN(CCNC(=O)CCC(=O)NCc3ccc(/N=N/c4ccc(C(=O)NCCN(CCNC(=O)CCC(=O)NCCN)C(=O)CCc5cn(CCO[C@@H]6O[C@H](CO)[C@H](O)[C@H](O)[C@H]6O)nn5)cc4)cc3)C(=O)CCc3cn(CCO[C@@H]4O[C@H](CO)[C@H](O)[C@H](O)[C@H]4O)nn3)cc2)cc1)C(=O)CCc1cn(CCO[C@@H]2O[C@H](CO)[C@H](O)[C@H](O)[C@H]2O)nn1 [AZO-Gal(1,3,5)-5]
IC50 (PA-IL [1]; E-isomer, PA-IL 1 µM preincubated with glycooligomer 400 µM to 0.1 µM): 3.4 ± 0.4 µM
IC50 (PA-IL [1]; PSS: photostationary state @ 360 nm, PA-IL 1 µM preincubated with glycooligomer 400 µM to 0.1 µM): 4.1 ± 1.3 µM
Kd (PA-IL [2]; E-form immobilized on chip, 25 °C): 3300 ± 300 nM
Kd (PA-IL [2]; PSS @ 360 nm, ex situ irradiation before immobilization): 7400 ± 900 nM
Kd (PA-IL [2]; PSS @ 360 nm, irradiation on chip): 3200 ± 900 nM
E,E-isomer that did not isomerize at PSS ([3]; UPLC): 10%
E,Z isomer at PSS ([3]; UPLC): 10%
Z,E isomer at PSS ([3]; UPLC): 10%
Z,Z-isomer at PSS ([3]; UPLC): 70%
total amount of Z-azobenzenes in the PSS mixture ([3]; buffer solution, from isomer composition): 80%

CC(=O)NCCN(CCNC(=O)CCC(=O)NCc1ccc(/N=N/c2ccc(C(=O)NCCN(CCNC(=O)CCC(=O)NCc3ccc(/N=N/c4ccc(C(=O)NCCN(CCNC(=O)CCC(=O)NCCN)C(=O)CCc5cn(CCO[C@H]6O[C@H](CO)[C@@H](O)[C@H](O)[C@@H]6O)nn5)cc4)cc3)C(=O)CCc3cn(CCO[C@H]4O[C@H](CO)[C@@H](O)[C@H](O)[C@@H]4O)nn3)cc2)cc1)C(=O)CCc1cn(CCO[C@H]2O[C@H](CO)[C@@H](O)[C@H](O)[C@@H]2O)nn1 [AZO-Man(1,3,5)-5]
binding to PA-IL (in words) (PA-IL [1]; SPR inhibition/competition assay): does not show any binding
IC50 (PA-IL [1]; [4]): n.b.^b

CC(=O)NCCN(CCNC(=O)CCC(=O)NCCOCCOCCNC(=O)CCC(=O)NCCN(CCNC(=O)CCC(=O)NCCN)C(=O)CCc1cn(CCO[C@@H]2O[C@H](CO)[C@H](O)[C@H](O)[C@H]2O)nn1)C(=O)CCc1cn(CCO[C@@H]2O[C@H](CO)[C@H](O)[C@H](O)[C@H]2O)nn1 [EDS-Gal(1,3)-3]
IC50 (PA-IL [1]; IC50, no isomer state given (control structures), PA-IL 1 µM): 3.2 ± 0.2 µM

CC(=O)NCCN(CCNC(=O)CCC(=O)NCCOCCOCCNC(=O)CCC(=O)NCCN(CCNC(=O)CCC(=O)NCCOCCOCCNC(=O)CCC(=O)NCCN(CCNC(=O)CCC(=O)NCCN)C(=O)CCc1cn(CCO[C@@H]2O[C@H](CO)[C@H](O)[C@H](O)[C@H]2O)nn1)C(=O)CCc1cn(CCO[C@@H]2O[C@H](CO)[C@H](O)[C@H](O)[C@H]2O)nn1)C(=O)CCc1cn(CCO[C@@H]2O[C@H](CO)[C@H](O)[C@H](O)[C@H]2O)nn1 [EDS-Gal(1,3,5)-5]
IC50 (PA-IL [1]; [4]): 2 ± 0.6 µM
